System: M17-TAU P301L cells
Assay: TAU cytotoxicity assay: LDH leakage of retinoic acid incubated M17-TAU P301L cells
Type: cell-based, human
Conditions: Homo sapiens, 168 h, reduction of LDH activity of retinoic acid incubated M17-TAU P301L cells, 7 days
Summary of the method: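 M17 neuroblastoma cells stably expressing human TAU P301L, seeded at 2500 cells/cm2 in Optimem with 1% FCS, then given 2.5 μM retinoic acid (stock before 1:1 addition) and grown 7 days at 37 °C. Cytotoxicity read as LDH leaked into medium; EC50 derived from these measurements.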

| SMILES | EC50 |
| --- | --- |
| CCc1ccccc1N1CCC(C(=O)NCCc2c[nH]c3ccc(Cl)cc23)C1=O (stereo not drawn) [Example D157, N-(2-(5-chloro-1H-indol-3-yl)ethyl)-1-(2-ethylphenyl)-2-oxopyrrolidine-3-carboxamide] | 1210 nM |
| Cc1ccccc1N1CCC(C(=O)NCCc2c[nH]c3ccc(Cl)cc23)C1=O (stereo not drawn) [Example D158, N-(2-(5-chloro-1H-indol-3-yl)ethyl)-2-oxo-1-o-tolylpyrrolidine-3-carboxamide] | 1030 nM |
| Cc1cccc(N2CCC(C(=O)NCCc3c[nH]c4ccc(Cl)cc34)C2=O)c1 (stereo not drawn) [Example D159, N-(2-(5-chloro-1H-indol-3-yl)ethyl)-2-oxo-1-m-tolylpyrrolidine-3-carboxamide] | 900 nM |
| Cn1ccc(N2CCC(C(=O)NCCc3c[nH]c4ccc(Cl)cc34)C2=O)n1 (stereo not drawn) [Example D160, N-(2-(5-chloro-1H-indol-3-yl)ethyl)-1-(1-methyl-1H-pyrazol-3-yl)-2-oxopyrrolidine-3-carboxamide] | 1040 nM |
| COc1cccc(N2CCC(C(=O)NCCc3c[nH]c4ccc(Cl)cc34)C2=O)c1 (stereo not drawn) [Example D162, N-(2-(5-chloro-1H-indol-3-yl)ethyl)-1-(3-methoxyphenyl)-2-oxopyrrolidine-3-carboxamide] | 233 nM |
| COc1ccccc1N1CCC(C(=O)NCCc2c[nH]c3ccc(Cl)cc23)C1=O (stereo not drawn) [Example D163, N-(2-(5-chloro-1H-indol-3-yl)ethyl)-1-(2-methoxyphenyl)-2-oxopyrrolidine-3-carboxamide] | 1860 nM |
| O=C(NCCc1c[nH]c2ccc(Cl)cc12)C1CCN(CC2CCCCC2)C1=O (stereo not drawn) [Example D164, N-(2-(5-chloro-1H-indol-3-yl)ethyl)-1-(cyclohexylmethyl)-2-oxopyrrolidine-3-carboxamide] | 320 nM |
| Cc1ccc(N2CCC(C(=O)NCCc3c[nH]c4ccc(Cl)cc34)C2)cc1 (stereo not drawn) [Example D165, N-(2-(5-chloro-1H-indol-3-yl)ethyl)-1-p-tolylpyrrolidine-3-carboxamide] | 188 nM |
| O=C(NCCc1n[nH]c2ccccc12)c1cc(Cc2cc(F)ccc2F)on1 [Example D166, N-(2-(1H-indazol-3-yl)ethyl)-5-(2,5-difluorobenzyl)isoxazole-3-carboxamide] | 631 nM |
| Cn1ccc2cc(N3CCC(C(=O)NCCc4c[nH]c5ccc(Cl)cc45)C3=O)ccc21 (stereo not drawn) [Example D167, N-(2-(5-chloro-1H-indol-3-yl)ethyl)-1-(1-methyl-1H-indol-5-yl)-2-oxopyrrolidine-3-carboxamide] | 506 nM |
| O=C(NCCc1c[nH]c2ccc(Cl)cc12)c1noc(Cc2ccccc2)n1 [Example D168, 5-benzyl-N-(2-(5-chloro-1H-indol-3-yl)ethyl)-1,2,4-oxadiazole-3-carboxamide] | 77 nM |
| O=C(NCCc1c[nH]c2ccc(Cl)cc12)c1noc(Cc2cccc(F)c2)n1 [Example D169, N-(2-(5-chloro-1H-indol-3-yl)ethyl)-5-(3-fluorobenzyl)-1,2,4-oxadiazole-3-carboxamide] | 26 nM |
| O=C(NCCc1c[nH]c2ccc(Cl)cc12)c1noc(Cc2ccccc2F)n1 [Example D170, N-(2-(5-chloro-1H-indol-3-yl)ethyl)-5-(2-fluorobenzyl)-1,2,4-oxadiazole-3-carboxamide] | 45 nM |
| O=C(NCCc1c[nH]c2ccc(Cl)cc12)c1noc(Cc2ccc(F)cc2)n1 [Example D171, N-(2-(5-chloro-1H-indol-3-yl)ethyl)-5-(4-fluorobenzyl)-1,2,4-oxadiazole-3-carboxamide] | 32 nM |
| O=C(NCCc1c[nH]c2ccc(Cl)cc12)c1noc(Cc2ccc(Cl)cc2)n1 [Example D172, N-(2-(5-chloro-1H-indol-3-yl)ethyl)-5-(4-chlorobenzyl)-1,2,4-oxadiazole-3-carboxamide] | 34 nM |
| COc1ccc(Cc2nc(C(=O)NCCc3c[nH]c4ccc(Cl)cc34)no2)cc1 [Example D173, N-(2-(5-chloro-1H-indol-3-yl)ethyl)-5-(4-methoxybenzyl)-1,2,4-oxadiazole-3-carboxamide] | 60 nM |
| O=C(NCCc1c[nH]c2ccc(Cl)cc12)c1noc(Cc2ccc(Cl)c(Cl)c2)n1 [Example D174, N-(2-(5-chloro-1H-indol-3-yl)ethyl)-5-(3,4-dichlorobenzyl)-1,2,4-oxadiazole-3-carboxamide] | 282 nM |
| O=C(NCCc1c[nH]c2ccc(Cl)cc12)c1noc(Cc2ccc(Cl)c(F)c2)n1 [Example D175, N-(2-(5-chloro-1H-indol-3-yl)ethyl)-5-(4-chloro-3-fluorobenzyl)-1,2,4-oxadiazole-3-carboxamide] | 94 nM |
| CC(C)(C)c1ccc(Cc2nc(C(=O)NCCc3c[nH]c4ccc(Cl)cc34)no2)cc1 [Example D176, 5-(4-tert-butylbenzyl)-N-(2-(5-chloro-1H-indol-3-yl)ethyl)-1,2,4-oxadiazole-3-carboxamide] | 100 nM |
| COc1cccc(Cc2nc(C(=O)NCCc3c[nH]c4ccc(Cl)cc34)no2)c1 [Example D177, N-(2-(5-chloro-1H-indol-3-yl)ethyl)-5-(3-methoxybenzyl)-1,2,4-oxadiazole-3-carboxamide] | 29 nM |

| SMILES | EC50 |
| --- | --- |
| COc1ccc(Cc2nc(C(=O)NCCc3c[nH]c4ccc(Cl)cc34)no2)cc1OC [Example D178, N-(2-(5-chloro-1H-indol-3-yl)ethyl)-5-(3,4-dimethoxybenzyl)-1,2,4-oxadiazole-3-carboxamide] | 125 nM |
| COc1ccc(OC)c(Cc2nc(C(=O)NCCc3c[nH]c4ccc(Cl)cc34)no2)c1 [Example D179, N-(2-(5-chloro-1H-indol-3-yl)ethyl)-5-(2,5-dimethoxybenzyl)-1,2,4-oxadiazole-3-carboxamide] | 51 nM |
| O=C(NCCc1c[nH]c2ccc(Cl)cc12)c1noc(Cc2cccs2)n1 [Example D180, N-(2-(5-chloro-1H-indol-3-yl)ethyl)-5-(thiophen-2-ylmethyl)-1,2,4-oxadiazole-3-carboxamide] | 103 nM |
| Cc1ccc(Cc2nc(C(=O)NCCc3c[nH]c4ccc(Cl)cc34)no2)cc1 [Example D181, N-(2-(5-chloro-1H-indol-3-yl)ethyl)-5-(4-methylbenzyl)-1,2,4-oxadiazole-3-carboxamide] | 48 nM |
| O=C(NCCc1c[nH]c2ccc(Cl)cc12)c1noc(Cc2cc(F)cc(F)c2)n1 [Example D182, N-(2-(5-chloro-1H-indol-3-yl)ethyl)-5-(3,5-difluorobenzyl)-1,2,4-oxadiazole-3-carboxamide] | 11 nM |
| COc1ccccc1Cc1nc(C(=O)NCCc2c[nH]c3ccc(Cl)cc23)no1 [Example D183, N-(2-(5-chloro-1H-indol-3-yl)ethyl)-5-(2-methoxybenzyl)-1,2,4-oxadiazole-3-carboxamide] | 47 nM |
| Cc1cccc(Cc2nc(C(=O)NCCc3c[nH]c4ccc(Cl)cc34)no2)c1 [Example D184, N-(2-(5-chloro-1H-indol-3-yl)ethyl)-5-(3-methylbenzyl)-1,2,4-oxadiazole-3-carboxamide] | 26 nM |
| O=C(NCCc1c[nH]c2ccc(Cl)cc12)c1noc(Cc2ccc(OC(F)(F)F)cc2)n1 [Example D185, N-(2-(5-chloro-1H-indol-3-yl)ethyl)-5-(4-(trifluoromethoxy)benzyl)-1,2,4-oxadiazole-3-carboxamide] | 42 nM |
| O=C(NCCc1c[nH]c2ccc(Cl)cc12)c1noc(Cc2cccc(C(F)(F)F)c2)n1 [Example D186, N-(2-(5-chloro-1H-indol-3-yl)ethyl)-5-(3-(trifluoromethyl)benzyl)-1,2,4-oxadiazole-3-carboxamide] | 119 nM |
| O=C(NCCc1c[nH]c2ccc(Cl)cc12)c1noc(Cc2ccc(C(F)(F)F)cc2)n1 [Example D187, N-(2-(5-chloro-1H-indol-3-yl)ethyl)-5-(4-(trifluoromethyl)benzyl)-1,2,4-oxadiazole-3-carboxamide] | 32 nM |
| O=C(NCCc1c[nH]c2ccc(Cl)cc12)c1noc(Cc2c(F)cccc2F)n1 [Example D188, N-(2-(5-chloro-1H-indol-3-yl)ethyl)-5-(2,6-difluorobenzyl)-1,2,4-oxadiazole-3-carboxamide] | 41 nM |
| O=C(NCCc1c[nH]c2ccc(Cl)cc12)c1noc(Cc2ccc(F)cc2F)n1 [Example D189, N-(2-(5-chloro-1H-indol-3-yl)ethyl)-5-(2,4-difluorobenzyl)-1,2,4-oxadiazole-3-carboxamide] | 15 nM |
| O=C(NCCc1c[nH]c2ccc(Cl)cc12)c1noc(Cc2cccc(Cl)c2)n1 [Example D190, N-(2-(5-chloro-1H-indol-3-yl)ethyl)-5-(3-chlorobenzyl)-1,2,4-oxadiazole-3-carboxamide] | 25 nM |
| O=C(NCCc1c[nH]c2ccc(Cl)cc12)c1noc(Cc2ccccc2Cl)n1 [Example D191, N-(2-(5-chloro-1H-indol-3-yl)ethyl)-5-(2-chlorobenzyl)-1,2,4-oxadiazole-3-carboxamide] | 25 nM |
| Cc1ccccc1Cc1nc(C(=O)NCCc2c[nH]c3ccc(Cl)cc23)no1 [Example D192, N-(2-(5-chloro-1H-indol-3-yl)ethyl)-5-(2-methylbenzyl)-1,2,4-oxadiazole-3-carboxamide] | 53 nM |
| O=C(NCCc1c[nH]c2ccc(Cl)cc12)c1noc(Cc2ccsc2)n1 [Example D193, N-(2-(5-chloro-1H-indol-3-yl)ethyl)-5-(thiophen-3-ylmethyl)-1,2,4-oxadiazole-3-carboxamide] | 49 nM |
| O=C(NCCc1c[nH]c2ccc(Cl)cc12)c1cc(C(=O)c2cc(F)ccc2F)on1 [Example D194, N-(2-(5-chloro-1H-indol-3-yl)ethyl)-5-(2,5-difluorobenzoyl)isoxazole-3-carboxamide] | 113 nM |
| O=C(NCCc1c[nH]c2ccc(Cl)cc12)c1cc(C(O)c2ccccc2)on1 (stereo not drawn) [Example D195, N-(2-(5-chloro-1H-indol-3-yl)ethyl)-5-(hydroxy(phenyl)methyl)isoxazole-3-carboxamide] | 101 nM |
| CCOCC1CC(C(=O)NCCc2c[nH]c3ccc(Cl)cc23)=NO1 (stereo not drawn) [Example D216, N-(2-(5-chloro-1H-indol-3-yl)ethyl)-5-(ethoxymethyl)-4,5-dihydroisoxazole-3-carboxamide] | 77 nM |

— US8618138B2, “Indole amide derivatives and related compounds for use in the treatment of neurodegenerative diseases” (Katholieke Universiteit Leuven, K.U. Leuven R&D, priority 2009, dated 2013)
